Entries after “also recorded” stand apart in the source; their conditions may differ. Like-named read-outs stand apart in the source and are kept apart here.
Columns and labels:
[1] = test system: UC-MSCs; assay: Metabolic status (OCR, ECAR, lactate efflux) and surface markers of treated MSCs (FIG. 4); format: cell-based
Excerpt: FIG. 4. […] (A) MSCs treated with ATP-Synthase inhibitors show a diminished oxidative phosphorylation, quantified as oxygen consumption rate (OCR), (B) and an enhanced glycolysis, shown as extracellular acidification rate (ECAR).
In order to determine the efficiency of MSCs treated with ATP-synthase inhibitors, the inventors first evaluated the glycolytic status of UC-MSCs using biochemical parameters such as lactate production and glucose consumption and also if possible, the metabolic status of MSCs treated with ATP-synthase inhibitors was evaluated in real time by measuring the oxygen consumption rate (OCR) or the extra cellular acidification rate (ECAR) by the Seahorse™ technology. Moreover, different functional assays were carried out in order to compare the efficacy of MSCs treated with ATP-synthase inhibitors as compared to non-treated UC-MSCs including evaluation of the differentiation potential towards chondrocytes, viability assays of MSCs, chondroprotection assays, immunosuppression assays and in vivo evaluation using joint inflammation murine models.

[2] = test system: UC-MSCs; assay: Chondrogenic differentiation of UC-MSCs: micromass, Aggrecan qPCR, Collagen II vs Collagen I ratio (FIG. 5); format: cell-based; settings: basal media; for ratio of Collagen II vs Collagen I production: compared to MSC in basal media (CTL)
Excerpt: FIG. 5. […] UC-MSCs were differentiated towards chondrogenic lineage. […] The relative expression of the proteoglycan Aggrecan, which is typically expressed in hyaline cartilage, was quantified by qPCR. […] When MSC on basal media (CTL) are compared to MSC treated with inhibitors of the ATP-synthase, these treated MSC present chondrogenic behaviour on the ratio of Collagen II vs Collagen I proportion. […] Also, some inhibitors present the same behaviour than MSC in differentiation media (differentiation) (D).

[3] = test system: mice with DTH; assay: In vivo model of delayed type hypersensitivity (DTH), paw swelling (FIG. 8); settings: mice treated with MSCs pre-incubated with or without oligomycin
[4] = test system: GVHD mice; assay: In vivo model of graft versus host disease (GVHD), Kaplan-Meier survival (FIG. 9); settings: UC-MSCs pre-treated or not with oligomycin
Excerpt: FIG. 9. […] A) Experimental design of the in vivo model of GVHD. B) Kaplan-Meier plot showing the survival rate of GVHD mice compared to UC-MSCs that were pre-treated or not with oligomycin. N=15 mice per experimental group performed at least 2 times independently—* p<0.05.

[5] = test system: UC-MSCs; assay: Transmigration of UC-MSCs through a semipermeable membrane with 8 μM pores (FIG. 11); format: cell-based; settings: quantified at 8 hours and 24 hours; 5% fetal bovine serum in lower chamber
Method: FIG. 11. UC-MSCs pretreated with oligomycin promote their transmigration potential. GlycoStem cells were cultured on a semipermeable membrane with […] diameter pores. Cells were seeded in serum-free medium in the upper chamber, while DMEM medium with 5% fetal bovine serum was added in the lower chamber to induce transmigration of the cells. Cell migration was quantified 8 hours (A and B) and 24 hours (C and D) later. […] N=3 different donors from 3 independent experiments * p<0.05.

[6] = test system: PBMC; assay: Coculture of human BM-MSCs, UC-MSCs or MenSC with phytohemaglutinine-activated PBMC, T-CD4 and T-CD8 proliferation by FACS (FIG. 12); format: cell-based; settings: BM-MSCs, 1 MSCs:20 PBMCs ratio, 4 days
Method: FIG. 12. […] Human BM-MSCs, UC-MSCs or MenSC were coculture with freshly isolated PBMC activated with phytohemaglutinine in a 1 MSCs:20 PBMCs ratio. After 4 days proliferation was measured by quantifying the decrease in cell fluorescence on either T-CD4 (A) or T-CD8 (B) cells in PBMCs by FACS. Results are represented as mean and SD of 3 independent experiments using at least 3 different PBMC donors and 2 different BM-MSCs, MenSC and UC-MSCs donors. Statistical analyses used the non-parametric Friedman test comparing more than two groups (*, p<0.05; **, p<0.01; ***, p<0.005).

[7] = test system: human mononuclear cells (PBMC); assay: Immunosuppression at different oligomycin pretreatment concentrations, co-culture with human PBMC (FIG. 14); format: cell-based; settings: pretreatment at 0.1 μg/ml, 1 μg/ml and 10 μg/ml; 4 days co-culture
Method: FIG. 14. […] MSC were with different oligomycin concentration (0.1 μg/ml, 1 μg/ml and 10 μg/ml), the media was removed and the cells were washed and cultured with freshly isolated human mononuclear cells (PBMC) that were stained with cell trace violet. Proliferation of CD4+ and CD8+ was quantified after 4 days of co-culturing by flow cytometry and graphed. N=3 PBMC and * p<0.05.
The inventors developed and immunosuppression experiment where the MSCs were pretreated with different concentrations of ATP-Synthase inhibitor, such as Oligomycin, more specifically at 0.1 μg/ml, 1 μg/ml and 10 μg/ml. After the pretreatment, the media with ATP-synthase inhibitor was removed, the MSCs were washed, and the MSC were cultured with freshly isolated human mononuclear cells (PBMC) that were stained with cell trace violet.

[8] = test system: murine CD4; assay: Immunosuppression after 6 or 24 hours pretreatment, co-culture with murine CD4 (FIG. 15); format: cell-based; settings: 3 days co-culture
Method: FIG. 15. […] MSC were treated for 6 and 24 hours oligomycin. Then, the media was removed, the cells were washed and these pretreated MSCs were co-cultured during 3 days with freshly isolated murine CD4 that were stained with cell trace violet. Proliferation of CD4+ was quantified by flow cytometry and graphed. N=4 different mice and * p<0.05.
The inventor developed an incubation experiment were the MSC were treated for 6 and 24 hours with an ATP-Synthase inhibitor, such as Oligomycin. After this treatment, the media with ATP-synthase inhibitor was removed, the MSCs were washed, and the MSCs were co-cultured during 3 days with murine freshly isolated CD4 and their effects were compared.

Row | Compound | metabolic switch towards glycolytic dependent metabolism (ECAR/OCR ratio) [1] | Surface markers of UC-MSC ([1]; after metabolic switch) | metabolic switch towards glycolytic dependent metabolism (ECAR/OCR ratio) ([1]; listed as Oligomycin) | ratio of Collagen II vs Collagen I production [2] | relative expression of the proteoglycan Aggrecan (qPCR) ([2]; compared to untreated control) | generation of three-dimensional tissue (micromass) / spontaneous differentiation into chondrocytes ([2]; no differentiation media, 24Hrs pre-treatment) | limb swelling (Paw Swelling) / inflammation in DTH [3] | survival rate of GVHD mice [4] | transmigration / migratory capacity [5] | immunosuppressive abilities of human MSCs (T-CD4 and T-CD8 proliferation) [6] | suppressive activity (proliferation of CD4+ and CD8+) [7] | suppressive activity (proliferation of CD4+) ([8]; 6 hours pretreatment) | suppressive activity (proliferation of CD4+) ([8]; 24 hours pretreatment)
1 | CC[C@H]1/C=C/C=C/C[C@@H](C)[C@H](O)[C@@](C)(O)C(=O)[C@@H](C)[C@H](O)[C@@H](C)C(=O)[C@@H](C)[C@H](O)[C@@H](C)/C=C/C(=O)O[C@@H]2[C@H](C)[C@H](CC1)O[C@]1(CC[C@H](C)[C@H](C[C@@H](C)O)O1)[C@H]2C [oligomycin, Oligomycin] | inducing a strongly glycolytic-dependent metabolism | not affected | induces a glycolytic dependent metabolism | fold change in the production of collagen type 2 versus collagen type 1 | increased relative expression; also recorded: increase in the relative expression | even greater than the three-dimensional tissue obtained by using the differentiation media alone; also recorded: spontaneously differentiate into chondrocytes; also recorded: stimulates the spontaneous differentiation towards a functional three-dimensional cartilage | increases the therapeutic potential of MSCs | increases the survival rate | significantly increase their migratory capacity | enhances the immunosuppressive abilities of human MSCs independent on the origin | enhanced suppressive activity that is dose dependent | enhanced the suppressive activity of MSCs | enhanced suppressive activity; also recorded: highest enhancement of the MSCs suppression activity
2 | Oc1ccc(C=Cc2cc(O)cc(O)c2)cc1 [resveratrol, Resveratrol] |  |  |  | fold change in the production of collagen type 2 versus collagen type 1; also recorded: promote the MSC in basal media to behave as MSC that are in a differentiation media |  |  |  |  |  |  |  |  | 
